From BindingDB's records for PubMed 38373290 (University of the Republic (UdelaR)) come the findings set out here.

The experiment deals with Metallo-beta-lactamase type 2 (Klebsiella pneumoniae, UniProt C7C422). In words: Inhibition of his6-tagged NDM-1 (unknown origin) expressed in Escherichia coli BL21-DE3 incubated for 16 hrs.
Sequence of Metallo-beta-lactamase type 2 (C7C422 whole entry): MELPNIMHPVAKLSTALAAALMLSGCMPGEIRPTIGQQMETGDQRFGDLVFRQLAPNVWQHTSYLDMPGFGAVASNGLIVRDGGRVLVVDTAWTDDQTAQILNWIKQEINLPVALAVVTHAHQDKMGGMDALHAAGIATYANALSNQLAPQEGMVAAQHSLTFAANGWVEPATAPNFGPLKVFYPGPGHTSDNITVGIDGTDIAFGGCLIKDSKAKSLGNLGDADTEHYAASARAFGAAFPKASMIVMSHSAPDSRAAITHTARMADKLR

`SC[C@H]1SC[C@@H]2Nc3ccccc3N21` showed a half-inhibitory concentration (IC50) of 770 nM.
